In patent US20240173332A1, “BENZO[…] TREATING OR PREVENTING RESPIRATORY SYNCYTIAL VIRUS INFECTION” (Pfizer Inc., priority 2021, published 2024):
Read-outs that look alike come from different tables or passages of the source.

Key:
[1] = tested on: RSV A2; assay: RSV plaque reduction assay in Hep-G2 cells; type: cell-based, respiratory syncytial virus (RSV); settings: human respiratory syncytial virus, HepG2, 48 h, Hep-G2 cells, RSV A2, 2 days; mean of at least two experiments; read-out: RSV A2 Plaque EC50
Protocol: Compounds were subjected to RSV plaque reduction assays according to the following protocol. Plaque EC50 and cell toxicity CC50 values are a mean of at least two experiments and figures are rounded to whole units.
Hep-G2 cells (ECACC, 85011430) were passaged in flasks and seeded in 24-well plates in DMEM containing antibiotics and supplemented with 10% FBS. During inoculation and subsequent incubation, cells were cultured in DMEM containing 2% FBS. 100 plaque forming unit/well of RSV (RSV A2 ECACC, 0709161v) was mixed with eight serial dilutions of compound. Subsequently, 100 μL of the virus/compound mixtures was added to confluent Hep-G2 cell monolayers. The cells and virus/compound mixtures were incubated at 37° C. in a humidified 5% CO2 incubator for 2 h prior to removal of the inoculum and addition of 1 mL of overlay (DMEM containing 2% FBS and 0.8% CMC) containing compound dilutions. The cells and were incubated at 37° C. in a humidified 5% CO2 incubator for 2 days.
Cells were washed with PBS before adding 75/25% v/v EtOH/MeOH, for 3 min. Fixative was removed and plates were washed with PBS. A pre-titrated amount of the primary antibody was added in 200 μL PBS/2% milk powder, and plates incubated for 90 min at 37° C. The plates were washed 3 times with PBS/0.05% Tween20 before addition of rabbit anti-goat horse radish peroxidase in 200 μL PBS/2% milk powder, and incubated for 1 h at 37° C. Following three wash steps with PBS/0.05% Tween20, 200 μL ready-to-use TrueBlue was added and plates were incubated at rt for 10-15 min before washing with water. After removal of water, plates were air-dried in the dark. Plates were scanned and analysed using the Immunospot S6 Macro analyser, which is equipped with BioSpot analysis software for counting immunostained plaques (virospots). Plaque counts were used to calculate % infection relative to the mean of the plaque count in the virus control wells for RSV. The EC50 value was calculated as 50% reduction in signal, respectively, by interpolation of inhibition curves fitted with a 4-parameter nonlinear regression with a variable slope in Dotmatics. Plaque EC50 and cell toxicity CC50 values are a mean of at least two experiments and figures are rounded to whole units.

[2] = Cell cytotoxicity CC50; type: cell-based; settings: human, Hep-G2 cells; mean of at least two experiments unless (n = 1)
[3] = Liver microsomal stability, rat; type: in vitro ADME; settings: pooled liver microsomes, pH 7.4, 0.5 mg/mL protein, 1 μM compound, NADPH, read-out: Liver Microsomal Stability t1/2
Protocol: (§1) Compounds were subjected to the following assays to investigate liver microsomal stability and hepatocyte stability.
(§2) Pooled liver microsomes were purchased from a reputable commercial supplier and stored at −80° C. prior to use. Microsomes (final protein concentration 0.5 mg/mL), 0.1 M phosphate buffer pH 7.4 and test compound (final substrate concentration 1 μM; final DMSO concentration 0.25%) were pre-incubated at 37° C. prior to the addition of NADPH (final concentration 1 mM) to initiate the reaction. The final incubation volume was 50 μL. A control incubation was included for each compound tested where 0.1 M phosphate buffer pH 7.4 was added instead of NADPH (minus NADPH). Two control compounds were included with each species. All incubations were performed singularly for each test compound. Each compound was incubated for 0, 5, 15, 30 and 45 min. The control (minus NADPH) was incubated for 45 min only. The reactions were stopped by transferring incubate into acetonitrile at the appropriate time points, in a 1:3 ratio. The termination plates are centrifuged at 3,000 rpm for 20 min at 4° C. to precipitate the protein. Following protein precipitation, the sample supernatants were combined in cassettes of up to 4 compounds, internal standard added, and samples analysed by LC-MS/MS. From a plot of In peak area ratio (compound peak area/internal standard peak area) against time, the gradient of the line was determined. Subsequently, half-life (t1/2) and intrinsic clearance (CLint) were calculated.

[4] = Liver microsomal stability, dog; type: in vitro ADME; settings: pooled liver microsomes, pH 7.4, 0.5 mg/mL protein, 1 μM compound, NADPH, read-out: Liver Microsomal Stability t1/2
Protocol: as §1, §2

[5] = Liver microsomal stability, human; type: in vitro ADME; settings: pooled liver microsomes, pH 7.4, 0.5 mg/mL protein, 1 μM compound, NADPH, read-out: Liver Microsomal Stability t1/2
Protocol: as §1, §2

[6] = Hepatocyte stability, rat; type: in vitro ADME; settings: cryopreserved pooled hepatocytes, 3 μM compound, 60 min, read-out: Liver Hepatocyte Stability t1/2
Protocol: as §1
(§3) Cryopreserved pooled hepatocytes were purchased from a reputable commercial supplier and stored in liquid nitrogen prior to use. Williams E media supplemented with 2 mM L-glutamine and 25 mM HEPES and test compound (final substrate concentration 3 μM; final DMSO concentration 0.25%) are pre-incubated at 37° C. prior to the addition of a suspension of cryopreserved hepatocytes (final cell density 0.5 ×10^6 viable cells/mL in Williams E media supplemented with 2 mM L-glutamine and 25 mM HEPES) to initiate the reaction. The final incubation volume is 500 μL. Two control compounds were included with each species, alongside appropriate vehicle control. The reactions were stopped by transferring 50 μL of incubate to 100 μL acetonitrile containing internal standard at the appropriate time points. Samples were removed at 6 time points (0, 5, 15, 30, 45 and 60 min) over the course of a 60 min experiment. The termination plates were centrifuged at 2500 rpm at 4° C. for 30 min to precipitate the protein.
(§4) Following protein precipitation, the sample supernatants were combined in cassettes of up to 4 compounds and analysed using generic LC-MS/MS conditions. From a plot of In peak area ratio (compound peak area/internal standard peak area) against time, the gradient of the line was determined. Subsequently, half-life (t1/2) and intrinsic clearance (CLint) were calculated.

[7] = Hepatocyte stability, dog; type: in vitro ADME; settings: cryopreserved pooled hepatocytes, 3 μM compound, 60 min, read-out: Liver Hepatocyte Stability t1/2
Protocol: as §1, §3, §4

[8] = Hepatocyte stability, human; type: in vitro ADME; settings: cryopreserved pooled hepatocytes, 3 μM compound, 60 min, read-out: Liver Hepatocyte Stability t1/2
Protocol: as §1, §3, §4

[9] = In vivo pharmacokinetics in rats (IV and PO); parameters: species or system Male rats [Sprague Dawley (SD)]; settings: male SD rat; for half-life / Vd / clearance / Cmax / AUC(0-t): Sprague Dawley, plasma; for Vd / clearance / Cmax: study IV 1 mg/kg; for Cmax: route not given; for AUC(0-t): read-out: PO AUClast; for F: PO 10 mg/kg vs IV 1 mg/kg
Protocol: The pharmacokinetics of compounds were studied in vivo in rats at doses of 1 mg/kg (IV) and 10 mg/kg (PO).
Male rats [Sprague Dawley (SD)] surgically prepared with a jugular vein cannula were treated with experimental compounds via intravenous administration (IV; n=3; 1 mg/kg) or oral administration (PO; n=3; 10 mg/kg). Compounds were formulated as a solution in 40:60 dimethylacetamide:saline (IV administration) and a solution of 10% DMSO, 10% cremaphor in water (80%) (PO administration). […] Serial blood samples were collected via the cannula at 0.02, 0.08, 0.25, 0.5, 1, 2, 4, 6, 8 and 24 h post IV dosing of compound, and at 0.08, 0.25, 0.5, 1, 2, 4, 6, 8 and 24 h post oral dosing of compound, and plasma was prepared by centrifugation and stored immediately at −80° C. Samples were subsequently thawed, prepared for analysis by protein precipitation with acetonitrile, and analysed by tandem LCMS using electrospray ionisation using a matrix-matched calibration curve. PK parameters were calculated from the resulting data.

[10] = tested on: RSV; settings: Antimicrobial Agents and Chemotherapy, Sept. 2007, 3346-3353; cited from earlier work
[11] = IV 1 mg/kg, read-out: IV t1/2 (converted)
[12] = PO 10 mg/kg, read-out: PO t1/2 (converted)

Structure (SMILES)	EC50 [1]	CC50 [2]	half-life at 1 μM [3]	half-life at 1 μM [4]	half-life at 1 μM [5]	half-life at 3 μM [6]	half-life at 3 μM [7]	half-life at 3 μM [8]	half-life [9, 11]	half-life [9, 12]	Vd ([9]; PO 10 mg/kg)	clearance ([9]; PO 10 mg/kg)	Cmax ([9]; PO 10 mg/kg)	AUC(0-t) ([9]; PO 10 mg/kg)	F [9]	anti-RSV activity [10]
O=C(N[C@H]1N=C(c2ccccc2)c2cccc(F)c2NC1=O)c1c(-c2ccc(CO)cc2F)nn2cccnc12 [Example 1, 2-[2-Fluoro-4-(hydroxymethyl)phenyl]-N-[(35)-9-fluoro-2-oxo-5-phenyl-1,3-dihydro-1,4-benzodiazepin-3-yl]pyrazolo[1,5-a]pyrimidine-3-carboxamide]	18 nM	> 25 µM	41.4 min	635 min	329 min	83 min	157 min	333 min	90 min	186 min	0.75 L/kg	11.5 mL/min/kg	788 ng/mL	3880 ng·h/mL	25.6%	
CC(C)n1cc(-c2nn3cccnc3c2C(=O)N[C@H]2N=C(c3ccccc3)c3cccc(F)c3NC2=O)cn1 [Example 4, N-[(3S)-9-fluoro-2-oxo-5-phenyl-1,3-dihydro-1,4-benzodiazepin-3-yl]-2-(1-propan-2-ylpyrazol-4-yl)pyrazolo[1,5-a]pyrimidine-3-carboxamide]	37 nM	> 25 µM	158 min	157 min	395 min	130 min	84 min	227 min	264 min	222 min	0.49 L/kg	1.9 mL/min/kg	4790 ng/mL	57100 ng·h/mL	54.6%	
CS(=O)(=O)c1ccc(-c2nn3cccnc3c2C(=O)N[C@H]2N=C(c3ccccc3)c3cccc(F)c3NC2=O)c(F)c1 [Example 7, 2-(2-Fluoro-4-methylsulfonylphenyl)-N-[(3S)-9-fluoro-2-oxo-5-phenyl-1,3-dihydro-1,4-benzodiazepin-3-yl]pyrazolo[1,5-a]pyrimidine-3-carboxamide]	9 nM	> 25 µM				5140 min	57 min	377 min	96 min	150 min	1.4 L/kg	13.1 mL/min/kg	2340 ng/mL	24800 ng·h/mL	188%	
O=C(N[C@H]1N=C(c2ccccc2)c2cccc(F)c2NC1=O)c1c(-c2cccc(CO)c2F)nn2cccnc12 [Example 18, 2-[2-Fluoro-3-(hydroxymethyl)phenyl]-N-[(3S)-9-fluoro-2-oxo-5-phenyl-1,3-dihydro-1,4-benzodiazepin-3-yl]pyrazolo[1,5-a]pyrimidine-3-carboxamide]	44 nM	> 25 µM	59 min	390 min	530 min	94 min	> 180 min	> 180 min								
O=C(Nc1ccccc1F)N[C@H]1N=C(c2ccccc2)c2ccccc2NC1=O [RSV604]																sub-micromolar
